Test results as given in ChEMBL document CHEMBL4765406 (Eur J Med Chem, 2020).
The source made the active and inactive calls. No cut-off for these calls is given here.

How the values were obtained:
[1] = target: T1, Tyrosine-protein kinase BTK (Homo sapiens, UniProt Q06187); test: Inhibition of BTK (unknown origin) using poly(Glu, Tyr) 4:1 as substrate incubated in presence of [gamma33P]ATP by image analyser
[2] = target: T1, Tyrosine-protein kinase BTK; test: Inhibition of BTK in human Ramos cells assessed as reduction in anti-human IgM F(ab)2-induced ERK phosphorylation preincubated for 10 mins followed by stimulated with antihuman IgM F(ab)2 incubated for 60 mins by Western blot analysis; assay type: cell-based; conditions: time 70.0 min
[3] = target: T1, Tyrosine-protein kinase BTK; test: Inhibition of BTK in human Ramos cells assessed as reduction in anti-human IgM F(ab)2-induced BTK phosphorylation at Tyr223 residue preincubated for 10 mins followed by stimulated with antihuman IgM F(ab)2 incubated for 60 mins by Western blot analysis; assay type: cell-based; conditions: time 1.0 hrs
[4] = target: T1, Tyrosine-protein kinase BTK; test: Inhibition of BTK in human Ramos cells assessed as reduction in anti-human IgM F(ab)2-induced BCR mediated PLCgamma2 phosphorylation preincubated for 10 mins followed by stimulated with antihuman IgM F(ab)2 incubated for 60 mins by Western blot analysis; assay type: cell-based; conditions: time 70.0 min
[5] = target: T1, Tyrosine-protein kinase BTK; test: Inhibition of BTK in human Ramos cells assessed as reduction in anti-human IgM F(ab)2-induced BTK phosphorylation at Tyr551 residue preincubated for 10 mins followed by stimulated with antihuman IgM F(ab)2 incubated for 60 mins by Western blot analysis; assay type: cell-based; conditions: time 70.0 min

T1 sequence (Q06187 whole entry): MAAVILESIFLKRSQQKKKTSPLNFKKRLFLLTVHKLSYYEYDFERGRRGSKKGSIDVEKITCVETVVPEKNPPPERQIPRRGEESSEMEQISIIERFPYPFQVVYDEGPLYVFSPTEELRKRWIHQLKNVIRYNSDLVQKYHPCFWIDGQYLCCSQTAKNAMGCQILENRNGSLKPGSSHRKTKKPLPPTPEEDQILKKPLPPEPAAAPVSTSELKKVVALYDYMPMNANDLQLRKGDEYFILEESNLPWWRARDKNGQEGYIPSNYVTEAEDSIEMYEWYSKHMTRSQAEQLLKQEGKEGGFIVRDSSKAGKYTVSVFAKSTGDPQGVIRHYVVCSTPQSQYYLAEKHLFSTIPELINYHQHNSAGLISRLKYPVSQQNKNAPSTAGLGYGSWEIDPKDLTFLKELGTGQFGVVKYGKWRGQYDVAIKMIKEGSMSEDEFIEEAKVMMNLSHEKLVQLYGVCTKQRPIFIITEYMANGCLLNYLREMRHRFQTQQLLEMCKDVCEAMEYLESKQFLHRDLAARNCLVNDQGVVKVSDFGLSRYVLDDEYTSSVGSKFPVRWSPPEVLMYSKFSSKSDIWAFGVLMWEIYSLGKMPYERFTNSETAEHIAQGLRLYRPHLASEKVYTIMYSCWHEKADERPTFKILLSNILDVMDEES

c1nc2c(Nc3ccc(N4CCOCC4)cc3)nc(-c3ccc4cn[nH]c4c3)nc2[nH]1 gave an IC50 [1] of 73 nM.
c1nc2c(Nc3ccc(N4CCOCC4)cc3)nc(-c3ccc4cn[nH]c4c3)cc2[nH]1 was tested, and the IC50 [1] was 369 nM and the inhibition [2] was “inactive”.
c1cc(N2CCOCC2)ccc1Nc1nc(-c2ccc3cn[nH]c3c2)nc2[nH]ncc12 showed an IC50 [1] of 167 nM.
For c1cc2nc(-c3ccc4cn[nH]c4c3)nc(Nc3ccc(N4CCOCC4)cc3)c2[nH]1, the IC50 [1] was over 20000 nM.
For c1cn2cc(-c3ccc4cn[nH]c4c3)nc(Nc3ccc(N4CCOCC4)cc3)c2n1 [ENTOSPLETINIB], the IC50 [1] was 801 nM, the inhibition [3] was “Active” and the inhibition [4] was “Active”. For the same compound, the inhibition [2] was “Active” and the inhibition [5] was “Active”.
Compound c1nc2c(Nc3ccc(N4CCOCC4)cc3)cc(-c3ccc4cn[nH]c4c3)nc2[nH]1 has an IC50 [1] of 1450 nM.
